Like-named read-outs stand apart in the source and are kept apart here.
How the values were obtained:
[1] = tested on: T-45 cells; format: cell-based, human; details: for Estimated Cell Growth Virus-uninfected Day 7: no-drug control 1.2x10^6; for cytotoxicity: non-infected cells, over the concentration range used (Fig. 3, Table 1), result in words
Description: FIG. 1 is a schematic outline of the test procedure used to assess the cytotoxic effect of test compounds on T-cells either infected or non-infected with HIV and in parallel the HIV inhibitory activity of the test compounds. TCID is the tissue culture infectious dose. Cells were cultured in RPMI-1640 medium with 10% fetal calf serum containing 100 units/ml penicillin G and 100 µg/ml streptomycin.
(§1) The assay was run in 96 well plastic microtiter plates in which 0.2 ml of culture medium containing 10^4 T-cells are seeded into each well. RPMI-1640 supplemented with 10% fetal calf serum was used as the culture medium. In each assay, 6 wells are used. Three (1-3) are infected with 10^4 TCID/well of HIV-1 or HIV-2 and to the other three (4-6) culture medium alone is added. Medium is changed at the same intervals for each test compound. The detailed assay procedure is illustrated in Figures 1 and 2.
(§2) The efficacy of the test compounds used in this example was assessed as follows: 0.2 ml of culture medium containing 10^4 T-45 cells were transferred into each well of a 96-well flat-bottomed tissue-culture plastic plate and the cells were allowed to settle at 37°C (see Figure 1). After 4 hours the media were aspirated and replaced with media which contained the test compound. Following overnight incubation the media was aspirated and 10^4 TCID of virus (HIV-1 or HIV-2) was added to each well. Incubation was continued at 37°C in 5% CO2 for 1 hour. Thereafter, growth media containing the various compounds were added and incubation at 37°C was continued. On the fourth day the cell suspensions from each well were split and seeded into two new wells and 0.2 ml of fresh media with compounds was added. This was repeated on the seventh day. Cells were examined by microscopy during days 1 to 10 for the presence of syncytia, growth rate and the appearance of the cytopathic effect (CPE) (giant cells, pycnotic nuclei, loss of refractility). CPE (100%) was defined as no round, refractile, uniform cells remaining; only giant, ballooned pyknotic cells were present. The viability of HIV infected cultures was determined by a rough count/estimate of cells which underwent CPE in relation to round refractile uniform (normal) cells in a given culture.
Quantitative data on the effect of the various compounds on the non-infected cells (cytotoxicity) was obtained by comparison of their growth rate to control cells not exposed to drugs (Table 1). […] In addition, the MOLT-4 cell line was also used.

[2] = tested on: HIV; assay: Inhibition of HIV-associated cytopathic effect (CPE) in T-45 cells; format: cell-based; details: HIV infected T-45 cells, various concentrations (Fig. 3); result in words
Description: FIG. 3 is a graphical representation in which the inhibition of HIV associated CPE (―% CPE) reduction) and test compound-associated cytotoxicity (---% cell death) is plotted against the media concentration in mg/ml of several test compounds (drugs). The cell viability data was determined for non-HIV infected cells. The test compounds were the N-methyl-, N-ethyl-, and N-butyl derivatives of deoxynojirimycin (DNJ), castanospermine (Cast), N-(5-carboxymethyl-1-pentyl)-1,5-imino-L-fucitol (LFT) and 1,4-dideoxy-1,4-imino-L-arabinitol (LAB).
After a suitable period of incubation, the cultures are scored for the presence of so-called syncytial cells (giant cells). Typical examples of such a test for the evaluation of inhibitors of HIV have been disclosed by Fung et al., Bio/Technology 5, 940-946 (1987); Tyms et al., Lancet, October 31, 1987, pp. 1025-1026; Gruters et al., Nature 330, 74-77 (1987); and Walker et al., Proc. Natl. Acad. Sci. USA 84, 8120-8124 (1987).
as §2, with “culture. Cells in wells which were incubated with compounds which appeared to inhibit or reduce HIV replication and in which there was marked cell proliferation were either transferred to larger wells (of a 24-well plate) or divided in order to maintain an approximate constant cell density to promote continuous cell division.” for “culture.”

[3] = tested on: HIV; details: result in words; see Fleet et al., FEBS Lett., In Press, 1988; cited from earlier work
[4] = tested on: HIV; details: cited from earlier work; for effect upon HIV infectivity: Gruters et al., Nature 330, 74-77 (1987)
[5] = tested on: HIV-1; assay: Virus titer (TCID) of HIV-1 infected T-cell cultures grown with test compound; format: cell-based; details: control 10^6; for HIV-1 (TCID): Table 2, 0.10 mg/ml, 10^4 T-45 or MOLT-4 cells (identical results), 10^4 TCID inoculum, after day 10; for VIRUS TITER HIV-1: Table 3, Example 2, 0.1 mg/ml, T-45 and MOLT-4 cells, 10^4 TCID on 10^4 cells
Description: (§3) Cell free suspensions of the HIV were prepared from infected cultures. The concentration of infectious particles was estimated on end-point titration assay using serial ten-fold dilutions. The approximate number of infectious particles in each preparation was determined by the highest dilution which contains infectious HIV as determined by synctial formation, cytopathicity [Leonard et al., Proc. Natl. Acad. Sci. USA 85, 3570-3574 (1988); Barre-Sinoussi et al., Science 220, 868-870 (1983)] and HIV antigen [Karpas et al., Lancet 1, 695-697 (1985)] synthesis after 10 days of culture with 10^4 T-cells. This represents the concentration of infectious particles, herein defined as the tissue culture infectious dose (TCID).
as §1
as §2, with “culture. Cells in wells which were incubated with compounds which appeared to inhibit or reduce HIV replication and in which there was marked cell proliferation were either transferred to larger wells (of a 24-well plate) or divided in order to maintain an approximate constant cell density to promote continuous cell division.” for “culture.”
(§4) That is, HIV-1 was first passaged in T-45 cells; likewise, HIV-1 was first passaged in MOLT-4 cells. The same passaging was done with HIV-2. The test compounds were used at a concentration of 0.1 mg/ml. 10^4 TCID of HIV-1 and separately of HIV-2 were used to infect 10^4 cells. Upon completion of the test, the virus titers were as follows: TABLE 3

[6] = tested on: HIV-2; assay: Virus titer (TCID) of HIV-2 infected T-cell cultures grown with test compound; format: cell-based; details: control 10^6; for HIV-2 (TCID): Table 2, 0.10 mg/ml, 10^4 T-45 or MOLT-4 cells (identical results), 10^4 TCID inoculum, after day 10; for VIRUS TITER HIV-2: Table 3, Example 2, 0.1 mg/ml, T-45 and MOLT-4 cells, 10^4 TCID on 10^4 cells
Description: as §3, §1
as §2, with “culture. Cells in wells which were incubated with compounds which appeared to inhibit or reduce HIV replication and in which there was marked cell proliferation were either transferred to larger wells (of a 24-well plate) or divided in order to maintain an approximate constant cell density to promote continuous cell division.” for “culture.”
as §4

[7] = tested on: HIV; assay: TCID titre of culture supernatants of T-45 cells infected with HIV, Fig. 4; format: cell-based; details: for reduction of TCID titre of culture supernatants: T-45 cells infected with HIV, after 10 days in culture, result in words
Description: FIG. 4 is a graphical representation in which the viral titer (determined as TCID) is plotted against the concentration in mg/ml of various of the test compounds (drugs) of FIG. 3 in panels (a) and (b).
as §3
as §2, with “culture. Cells in wells which were incubated with compounds which appeared to inhibit or reduce HIV replication and in which there was marked cell proliferation were either transferred to larger wells (of a 24-well plate) or divided in order to maintain an approximate constant cell density to promote continuous cell division.” for “culture.”
Quantitative data on the effect of the various compounds on the non-infected cells (cytotoxicity) was obtained by comparison of their growth rate to control cells not exposed to drugs (Table 1). Fig. 4 and Table 2 show the relation between the TCID titre of culture supernatants of T-45 cells infected with HIV after 10 days in culture and the concentration of drug. […] The inability of any of these drugs alone to totally reduce the TCID may be due to heterogeneity of virus production or spread. […] In addition, the MOLT-4 cell line was also used.

[8] = tested on: B16-F10 murine melanoma cells; assay: Incorporation of radiolabeled galactose, mannose, glucose and thymidine into cells; format: cell-based; details: result in words

O[C@H]1[C@H](O)[C@@H](O)CN2CC[C@H](O)[C@H]12 [Cast, castanospermine]
Estimated Cell Growth Virus-uninfected Day 7 ([1]; Dosage 0.02 mg/ml): 1.2x10^6 | Estimated Cell Growth Virus-uninfected Day 7 ([1]; Dosage 0.09 mg/ml): 1.0x10^6 | Estimated Cell Growth Virus-uninfected Day 7 ([1]; Dosage 0.18 mg/ml): 8.0x10^5 | Estimated Cell Growth Virus-uninfected Day 7 ([1]; Dosage 0.35 mg/ml): 8.0x10^5 | Estimated Cell Growth Virus-uninfected Day 7 ([1]; Dosage 0.70 mg/ml): Toxic | cytotoxicity [1]: cytotoxic | effect on CPE formation [2]: bell shaped dose-dependence | HIV inhibitory activity / effect on CPE [3]: inhibition of the cytopathic effect (CPE) by the α-glucosidase I inhibitor castanospermine is confirmed | reduction in virion infectivity ([4]; background literature, b4): only a modest reduction in virion infectivity

OC[C@H]1NC[C@@H](O)[C@@H]1O [D-enantiomer of 1,4-dideoxy-1,4-imino-arabinitol, 1,4-dideoxy-1,4-imino-arabinitol]
HIV inhibitory activity / effect on CPE [3]: very little effect on HIV replication

OC[C@H]1NC[C@@H](O)[C@@H](O)[C@@H]1O [DMJ, deoxymannojirimycin]
effect upon HIV infectivity [4]: absence of effect

OC[C@H]1NC[C@H](O)[C@@H](O)[C@@H]1O [DNJ, 1,5-dideoxy-1,5-imino-D-glucitol]
Estimated Cell Growth Virus-uninfected Day 7 ([1]; Dosage 0.25 mg/ml): 1.4x10^6 | Estimated Cell Growth Virus-uninfected Day 7 ([1]; Dosage 0.50 mg/ml): 1.4x10^6 | HIV-1 (TCID) [5]: 10^5 TCID | VIRUS TITER HIV-1 [5]: 10^5 | HIV-2 (TCID) [6]: 10^5 TCID | VIRUS TITER HIV-2 [6]: 10^5 | reduction of TCID titre of culture supernatants [7]: reduced the TCID only partially | galactose incorporation into the cells ([8]; radiolabeled galactose): substantially inhibited galactose incorporation into the cells at 1.0 mM or less | glucose utilization/inhibition ([8]; radiolabeled glucose): inhibited in a normal dose-response manner | mannose utilization ([8]; radiolabeled mannose): inhibited mannose utilization | ^3H-Thymidine uptake into the cells [8]: inhibited incorporation at 2.0 mM | effect upon HIV infectivity [4]: positive effect

CCN1C[C@H](O)[C@@H](O)[C@H](O)[C@H]1CO [EtDNJ, N-ethyl-deoxynojirimycin]
Estimated Cell Growth Virus-uninfected Day 7 ([1]; Dosage 0.01 mg/ml): 1.2x10^6 | Estimated Cell Growth Virus-uninfected Day 7 ([1]; Dosage 0.05 mg/ml): 1.2x10^6 | Estimated Cell Growth Virus-uninfected Day 7 ([1]; Dosage 0.10 mg/ml): 1.3x10^6 | cytotoxicity [1]: cytotoxic | HIV-1 (TCID) [5]: 10^3 TCID | VIRUS TITER HIV-1 [5]: 10^3 | HIV-2 (TCID) [6]: 10^3 TCID | VIRUS TITER HIV-2 [6]: 10^3 | reduction of TCID titre of culture supernatants [7]: reduced the TCID only partially | reduction of the virus titer / yield of infectious HIV ([7]; at non-cytotoxic concentrations): two to four log-order of reduction | effect on CPE formation [2]: bell shaped dose-dependence

O[C@@H]1[C@@H](O)[C@@H](O)CN2CC[C@H](O)[C@@H]12 [L-1,6-diepicastanospermine]
HIV inhibitory activity / effect on CPE [3]: neither the epimer L-1,6-diepicastanospermine nor the stereoisomer of castanospermine, L-6-epicastanospermine, were found to be inhibitory

O[C@@H]1[C@@H](O)[C@@H](O)CN2CC[C@@H](O)[C@@H]12 [L-6-epicastanospermine]
HIV inhibitory activity / effect on CPE [3]: neither the epimer L-1,6-diepicastanospermine nor the stereoisomer of castanospermine, L-6-epicastanospermine, were found to be inhibitory

OC[C@@H]1NC[C@H](O)[C@H]1O [LAB, 1,4-dideoxy-1,4-imino-L-arabinitol]
Estimated Cell Growth Virus-uninfected Day 7 ([1]; Dosage 0.10 mg/ml): 1.5x10^6 | Estimated Cell Growth Virus-uninfected Day 7 ([1]; Dosage 0.25 mg/ml): 1.5x10^6 | Estimated Cell Growth Virus-uninfected Day 7 ([1]; Dosage 0.50 mg/ml): 1.0x10^6 | cytotoxicity [1]: showed no cytotoxicity over the concentration range used | reduction of TCID titre of culture supernatants [7]: only able to reduce the TCID partially | HIV inhibitory activity / effect on CPE [3]: strong HIV inhibitory activity

OC[C@@H]1[C@@H](O)[C@H](O)[C@@H](O)CN1Cc1ccccc1 [N-benzyl derivative]
HIV inhibitory activity / effect on CPE [3]: Neither the azofuranose analog of glucose nor the N-benzyl derivative were found to have an effect on CPE

OC[C@H]1NCC[C@@H](O)[C@@H]1O [fagomine]
HIV inhibitory activity / effect on CPE [3]: no HIV inhibition was observed

N-(5-carboxymethyl-1-pentyl)-1,5-imino-L-fucitol [LFT]
reduction of TCID titre of culture supernatants [7]: only able to reduce the TCID partially

Source: patent EP0324328B1, “Use of the N-n-butyl derivative of desoxynojirimycin in the manufacture of a medicament inhibiting HIV-Virus” (priority 1987, dated 1989)
